The source of these data is US11723947B2, “Anti-senescence compounds and uses thereof” (Erasmus University Medical Center Rotterdam, priority 2015, dated 2023).

Square brackets hold non-standard residues; d marks the D form. Ends that are not written are not given here.

In series [1] the test system is Senescent and control IMR90. As to the method: The selectivity index (S.I.) for the EC50 values was determined after […] (GraphPad Prism) of the curves. […] Real-time cell density was measured using an xCELLigence detection system (ACEA Biosciences). Prior to the start of the measurement 50 μL DMEM 10% FCS was added to each well of an E-plate view 16 (Roche) to determine background signal. Non-senescent (2000 cells per well) and senescent (5000 cells/well) IMR90 fibroblasts were then plated in 150 μl medium. 16 hours later the E-plate was placed in the xCELLigence reader and the cell density was recorded every 30 minutes. […] Measurements continued for the indicated time-points. […] Experiment as in FIG. 2C, but with the indicated peptides. […] Cells were plated in 4-well Poly-L-Lysine coated glass bottom 35 mm dishes (D141410; Matsumi, Japan) and incubated with NucView488 Caspase-3 (4440; Essen Bioscience). […] 8h after addition the real-time imaging was initiated and every 30 min a grid of 3×3 pictures was imaged. The imaging continued for another 6 days and the images were concatenated using Zen imaging software. […] After 6 days cell viability was determined as in FIG. 2C). […] Experiment as in FIG. 2C, but according to the indicated treatment plan. Instead of one single dose, three doses were given (one day in between) of ⅓ that concentration each time. […] Left: Experiment as in FIG. 2C, but on cells pretreated once daily for two days with IL-1α Receptor Antagonist (RA), which blocks IL-1α/β signaling, recombinant IL-6 and recombinant IL-1α/β. […] Right: Similar experiment as in the left panel, except viability measured one day earlier. […] In senescent cells p53 signaling causes upregulation of the cell-cycle arrest and pro-survival protein p21Cip1. […] Experiment as in FIG. 2K. […] Experiment as in FIG. 2c, but with control and senescent IMR90 stable transduced with shRNAs against p53 or a control shRNA (shGFP).
A) Control IMR90 and IMR90 induced to senesce through 10Gy IR were plated in triplicate for each condition in a 96-well plate. […] After 6 days viability was determined through AqeousOne celltiter assay (Promega) according to the manufacturer's instructions.
Non-senescent (=“normal”, proliferating) IMR90 cells (ATCC #CCL-186, a diploid primary human fibroblast adherent cell line derived from fetal lung tissue) were irradiated with 10Gy Gamma-IR (IR=irradiation). After 7 days these cells are senescent and can be used for experiments comparing them to their non-irradiated (=non-senescent) counterparts. Senescent and non-senescent IMR90 fibroblasts were plated for longitudinal cell density measurement using the xCELLigence system (ACEA Biosciences, Inc., San Diego, Calif.).
5000 senescent (obtained as described above) and 2000 non-senescent IMR90 fibroblasts were plated in 96-well plates incubated with concentrations of NQDI between 0-20 μM and after 6 days cell viability was determined by AqueousOne CellTiter (MTT) assay according to the manufacturer's instructions.
5000 senescent (obtained as described above) and 2000 non-senescent IMR90 fibroblasts were plated in 96-well plates incubated with concentrations of R406, ranging from 16, 32, 64 to 128 nM and after 6 days cell viability was determined by AqueousOne CellTiter (MTT) assay according to the manufacturer's instructions.
Normal human IMR90 fibroblasts were exposed to 10 Gy Ionizing Radiation or treated 3× (bidaily) with 0.5 μM Doxorubicin. Seven days later they were processed for SA-β-Gal staining to visualize senescent cells. […] DAPI was used as a counterstain to visualize nuclei. […] After 6 days the cell viability was determined using an AqueousOne Celltiter (MTT) assay according to the manufacturer's instructions.

The test system of series [2] is fast aging Xpd^TTD/TTD mice. The experiment in a line: Healthspan, organ function and blood parameters of fast aging Xpd^TTD/TTD and wildtype mice. It counts as in vivo, mouse. The settings on record: 5 mg/kg i.v. day 0, 2 and 4, end of experiment.
Another series deals with LOX-IMVI. The series can be described thus: Viability of LOX-IMVI metastatic melanoma cells. It counts as cell-based, human. As to the method:
Assay as in FIG. 2C with increasing doses of Vemurafenib. […] LOX-IMVI however is resistant. […] Experiment as in FIG. 2C, but with LOX-IMVI treated with FOXO4 DRI alone, the BRAF^V600E-inhitors Vemurafenib or Dabrafenib, or the MEK inhibitor Trametinib alone, or a combination hereof. […] LOX-IMVI cells were incubated with FOXO4 DRI or Vemurafenib alone or in combination. The cells were co-treated with the pan-caspase inhibitor QVD-OPH to block caspase-dependent cell death. After 3 days the media was refreshed with new QVD-OPH containing media, but in the absence of FOXO4 DRI or Vemurafenib. At day 5 after initial treatment the cells were fixed and stained for Cytochrome C. Cytochrome C is present in the mitochondria in viable cells and is released into the cytosol when apoptosis is activated. Plotted are the number of cells showing release of Cytochrome C. […] LOX-IMVI were assessed for viability in the presence of FOXO4 DRI, the oxidative stress inhibitor N-Acetyl Cysteine (NAC) or the oxidative stressor H2O2. […]
LOX-IMVI cells were plated for (i) cell viability assay as in example 1 by AqueousOne MTT assay, (ii) apoptosis by Cytochrome C release, (iii) longitudinal cell density assay, and incubated with the FOXO4 DRI peptide, Vemurafenib/Trametinib, or their combination, respectively. […] The % of cells with Cytochrome C release was scored.

Series [3] has as its system senescent and non-senescent IMR90 fibroblasts. The series can be described thus: Real-time cell density, xCELLigence, senescent and non-senescent IMR90 fibroblasts. The settings on record: 2 μM on three consecutive days (24, 48 and 72 h). It counts as cell-based, human. As to the method: Measurements continued for the indicated time-points. […] Experiment as in FIG. 2K.
Cell density after time of plating was followed. […] NQDI is apparently rather safe even at high doses as as non-senescent cells are not affected by 20 uM NQDI.

Consider “[dL][dT][dL][dR][dK][dE][dP][dA][dS][dE][dI][dA][dQ][dS][dI][dL][dE][dA][dY][dS][dQ][dN]G[dW][dA][dN][dR][dR][dS]GG[dK][dR][dP][dP][dP][dR][dR][dR][dQ][dR][dR][dK][dK][dR]G [FOXO4 DRI]”, for which the “toxicity to non-senescent cells” value in series [1] is “proved to be safe to non-senescent cells”. Besides, the “toxicity to the hematopoietic system (blood parameters)” value in series [2] is recorded as “does not induce toxicity to the hematopoietic system”. As to `CC(C)(C)c1nc(-c2cccc(NS(=O)(=O)c3c(F)cccc3F)c2F)c(-c2ccnc(N)n2)s1` [Dabrafenib], the “LOX-IMVI viability, agent on its own” value in the series with LOX-IMVI (single agent) is “do not markedly affect LOX-IMVI viability”. `OO` [H2O2]: in the series with LOX-IMVI (FOXO4 DRI or H2O2 alone), the “LOX-IMVI viability, individually” value is “only marginally influenced LOX-IMVI viability”.

`CCOC(=O)c1c2c3c(cccc3[nH]c1=O)C(=O)c1ccccc1-2` [NQDI, 2,7-Dihydro-2,7-dioxo-3H-naphtho[1,2,3-de]quinoline-1-carboxylic acid ethyl ester]: the “% viability over Mock, senescent and non-senescent IMR90” value in series [1] (0-20 μM, 6 days) is reported as “clearly reduces cell viability in senescent, but not non-senescent IMR90 fibroblasts”. Further, the “effect on non-senescent cells at high dose” value in series [1] (20 uM) was “not affected”. In addition, in series [3], the “cell density, sequential rounds” value is given as “enhance its effectivity towards senescent cell clearance”.
